The record followed here is PubChem BioAssay AID651630 (Sanford-Burnham Center for Chemical Genomics, 2012).

Calls of active or inactive are those of the source.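 The calls were made as follows: active = lipid-stain IC50 at or below a set limit, with nuclear-stain toxicity IC50 at least five times higher; inactive = the rest.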 A value given as a limit tells only on which side of the number the result lay.

Assay [1] relates to TAG. Description: triacylglycerol accumulation inhibitor potency, dose response, cell-based, panel, Nile Red and DAPI fluorescence, H9c2 (AID 651630).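 Also: cells exposed to compound overnight before fixation and staining.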 The conditions noted are these: H9c2 cells, Nile Red TAG fluorescence, oleic acid.
For assay [2], the system named is DAPI. Described as above. The conditions noted are these: H9c2 cells, DAPI nuclear fluorescence (cytotoxicity counter-readout), oleic acid.

In the case of `C#CCN(C[C@@H]1[C@@H](OC(=O)NCC2CCCCC2)[C@@H](OC(=O)NCC2CCCCC2)CN(C(=O)OC(C)C)N1C(=O)OC(C)C)S(=O)(=O)c1ccc(C)cc1`, the IC50 is 10.6 µM in assay [1] (mean of runs), 10.1 µM in assay [1] (run 1) and 11.2 µM in assay [1] (run 2). For the same compound, the IC50 cytotoxicity (DAPI nuclear signal decrease) in assay [2] (mean of runs) was > 25 µM (inactive); in assay [2] (run 1), greater than 25 µM; in assay [2] (run 2), greater than 25 µM.
As for `C#CCN(C[C@@H]1[C@@H](OC(=O)NCc2ccco2)[C@@H](OC(=O)NCc2ccco2)CN(C(=O)OC(C)C)N1C(=O)OC(C)C)S(=O)(=O)c1ccc(C)cc1`, the IC50 in assay [1] (mean of runs) is 15.1 µM (inactive); in assay [1] (run 1), 16.2 µM; in assay [1] (run 2) it was 14 µM. Further, the IC50 cytotoxicity (DAPI nuclear signal decrease) is 16.5 µM in assay [2] (run 1) and greater than 25 µM in assay [2] (run 2).
For `COC(=O)c1c(NC(=S)NN2CCN(C)CC2)sc2c1CCC(C)C2` (configuration not stated), the IC50 in assay [1] (run 1) was greater than 25 µM; in assay [1] (run 2) it was 15.1 µM. The IC50 cytotoxicity (DAPI nuclear signal decrease) in assay [2] (mean of runs) is 17.8 µM (inactive); in assay [2] (run 1), 18.5 µM; in assay [2] (run 2), 17.1 µM.
Consider `COc1cc(OC)c2c(-c3ccccc3)cc(=O)oc2c1C(CCN1CCCCC1)c1ccc(N(C)C)cc1` (configuration not stated), for which the results for the IC50 in assay [1] (run 1) and in assay [1] (run 2) were 9.65 µM and greater than 25 µM, respectively. In addition, the results for the IC50 cytotoxicity (DAPI nuclear signal decrease) in assay [2] (run 1) and in assay [2] (run 2) were 15.9 µM and greater than 25 µM, respectively.
Regarding `Nc1c(C(=O)Nc2ccccc2)c2nc3ccccc3nc2n1-c1ccc(O)cc1`, the IC50 was 2.99 µM in assay [1] (mean of runs), 2.11 µM in assay [1] (run 1) and 3.88 µM in assay [1] (run 2). Also, the IC50 cytotoxicity (DAPI nuclear signal decrease) in assay [2] (run 1) and in assay [2] (run 2) was greater than 25 µM each time.
`COC(=O)c1ccc(/C=C/c2c(-c3ccsc3)oc3ccc(N4CCOCC4)cc23)cc1`: the IC50 is 16.9 µM (inactive) in assay [1] (mean of runs), 25 µM in assay [1] (run 1) and 8.72 µM in assay [1] (run 2). Moreover, the IC50 cytotoxicity (DAPI nuclear signal decrease) in assay [2] (mean of runs) was > 25 µM (inactive); in assay [2] (run 1) it was greater than 25 µM; in assay [2] (run 2) it was greater than 25 µM.
Take `O=C1Nc2ccc(Br)cc2/C1=N\N=C\C1=C(N2CCOCC2)C(=C/c2ccccc2)/CC1`: the results for the IC50 in assay [1] (mean of runs), in assay [1] (run 1) and in assay [1] (run 2) were 0.891 µM, 0.828 µM and 0.954 µM, respectively. Besides, the IC50 cytotoxicity (DAPI nuclear signal decrease) in assay [2] (run 1) and in assay [2] (run 2) was greater than 25 µM throughout.
On to `Cc1cccc2cc(C#N)c(SCC(=O)NNC(=O)Cc3ccccc3)nc12`, for which the IC50 in assay [1] (mean of runs) was > 25 µM (inactive); in assay [1] (run 1) it was greater than 25 µM; in assay [1] (run 2), greater than 25 µM. The results for the IC50 cytotoxicity (DAPI nuclear signal decrease) in assay [2] (mean of runs), in assay [2] (run 1) and in assay [2] (run 2) were > 25 µM (inactive), greater than 25 µM and greater than 25 µM, respectively.
As for `COc1ccc(CNC(=O)C2CCN(c3nc(-c4ccccc4)nc4c3CCC4)CC2)cc1`, the IC50 in assay [1] (mean of runs) is 13.8 µM; in assay [1] (run 1) it was 11.5 µM; in assay [1] (run 2) it was 16.1 µM. The IC50 cytotoxicity (DAPI nuclear signal decrease) is > 25 µM (inactive) in assay [2] (mean of runs), greater than 25 µM in assay [2] (run 1) and greater than 25 µM in assay [2] (run 2).
As to `Cc1cccc(C(=O)N[C@H](C(=O)Nc2ncc(C)s2)C(C)C)c1`, the results for the IC50 in assay [1] (mean of runs), in assay [1] (run 1) and in assay [1] (run 2) were 9.36 µM, 9.74 µM and 8.97 µM, respectively. Further, the IC50 cytotoxicity (DAPI nuclear signal decrease) in assay [2] (run 1) is 22.9 µM; in assay [2] (run 2), greater than 25 µM.
With `CSc1ccc(C2=C/C(=C3/SC(=S)NC3=O)c3ccccc3O2)cc1`, the IC50 in assay [1] (mean of runs) was 14.6 µM; in assay [1] (run 1), 11.8 µM; in assay [1] (run 2), 17.3 µM. Further, the IC50 cytotoxicity (DAPI nuclear signal decrease) in assay [2] (mean of runs) is > 25 µM (inactive); in assay [2] (run 1) it was greater than 25 µM; in assay [2] (run 2), greater than 25 µM.
With `COc1cccc2sc(Nc3nc(-c4cc5ccccc5oc4=O)cs3)nc12`, the IC50 in assay [1] (mean of runs) was 8.35 µM; in assay [1] (run 1) it was 7.33 µM; in assay [1] (run 2), 9.37 µM. Besides, the IC50 cytotoxicity (DAPI nuclear signal decrease) in assay [2] (mean of runs) was > 25 µM (inactive); in assay [2] (run 1), greater than 25 µM; in assay [2] (run 2) it was greater than 25 µM.
On to `COc1cccc(N=Nc2c(O)[nH]c(=S)[nH]c2=O)c1`, for which the IC50 in assay [1] (mean of runs) was > 25 µM (inactive); in assay [1] (run 1) it was greater than 25 µM; in assay [1] (run 2), greater than 25 µM. Besides, the IC50 cytotoxicity (DAPI nuclear signal decrease) was 6.31 µM in assay [2] (run 1) and greater than 25 µM in assay [2] (run 2).
`COC(=O)c1c(NC(NC(=O)C(C)(C)C)C(Cl)(Cl)Cl)sc2c1CCC2` (configuration not stated): the IC50 was 13.3 µM in assay [1] (mean of runs), 13.1 µM in assay [1] (run 1) and 13.5 µM in assay [1] (run 2). The results for the IC50 cytotoxicity (DAPI nuclear signal decrease) in assay [2] (mean of runs), in assay [2] (run 1) and in assay [2] (run 2) were > 25 µM (inactive), greater than 25 µM and greater than 25 µM, respectively.
For `C=CCC[C@@H](Cc1ccc(F)cc1)C(=O)OC[C@@H](NC(=O)[C@@H](CC=C)CC(=O)N[C@H](CO)Cc1ccccc1)C(C)(C)C`, the IC50 in assay [1] (mean of runs) was 9.45 µM; in assay [1] (run 1), 8.65 µM; in assay [1] (run 2), 10.2 µM. The IC50 cytotoxicity (DAPI nuclear signal decrease) in assay [2] (mean of runs) is > 25 µM (inactive); in assay [2] (run 1) it was greater than 25 µM; in assay [2] (run 2), greater than 25 µM.
In the case of `O=C1COc2ccc(C(=O)CSc3nc4ccccc4c(=O)n3-c3ccc(Cl)c(Cl)c3)cc2N1`, the half-inhibitory concentration (IC50) in assay [1] (mean of runs) was 13.8 µM; in assay [1] (run 1), 14.1 µM; in assay [1] (run 2), 13.4 µM. Further, the figures for the IC50 cytotoxicity (DAPI nuclear signal decrease) in assay [2] (mean of runs), in assay [2] (run 1) and in assay [2] (run 2) were 18.1 µM (inactive), 18.4 µM and 17.8 µM, respectively.
Consider `Cc1ccc(-c2csc(NC(=O)CSc3nc4ccccc4c(=O)n3CCCN(C)C)n2)cc1`, for which the IC50 in assay [1] (mean of runs) is 7.04 µM; in assay [1] (run 1), 7.46 µM; in assay [1] (run 2), 6.62 µM. The IC50 cytotoxicity (DAPI nuclear signal decrease) in assay [2] (mean of runs) was > 25 µM (inactive); in assay [2] (run 1), greater than 25 µM; in assay [2] (run 2) it was greater than 25 µM.
Regarding `CC(C)(C)OC(=O)[C@H](Cc1ccccc1)NC(=O)c1ncn2c1c(=O)[nH]c1ccc(Br)cc12`, the IC50 in assay [1] (mean of runs) is 11.8 µM; in assay [1] (run 1), 12 µM; in assay [1] (run 2) it was 11.6 µM. Moreover, the IC50 cytotoxicity (DAPI nuclear signal decrease) in assay [2] (mean of runs) was > 25 µM (inactive); in assay [2] (run 1), greater than 25 µM; in assay [2] (run 2) it was greater than 25 µM.
For the compound `CC(C)NC(=O)N(C)C[C@H]1Oc2cc(C#Cc3ccc(F)cc3)ccc2S(=O)(=O)N([C@H](C)CO)C[C@H]1C`, the half-inhibitory concentration (IC50) was 8.39 µM in assay [1] (mean of runs), 11 µM in assay [1] (run 1) and 5.81 µM in assay [1] (run 2). Further, the IC50 cytotoxicity (DAPI nuclear signal decrease) in assay [2] (mean of runs) was > 25 µM (inactive); in assay [2] (run 1), greater than 25 µM; in assay [2] (run 2), greater than 25 µM.
Regarding `CC(=O)c1ccc(-c2cnc3c(NC=O)cc(-c4ccc(C(=O)NC5CC5)cc4)cn23)cc1`, the IC50 in assay [1] (mean of runs) was > 25 µM (inactive); in assay [1] (run 1), greater than 25 µM; in assay [1] (run 2), greater than 25 µM. In addition, the IC50 cytotoxicity (DAPI nuclear signal decrease) in assay [2] (mean of runs) is > 25 µM (inactive); in assay [2] (run 1), greater than 25 µM; in assay [2] (run 2), greater than 25 µM.
